This is an account of results in patent US11472845B2, “Antitumor peptide and use thereof” (TOAGOSEI CO., LTD., priority 2019, dated 2022).

Data set [1] has as its system human melanoma cell lines (A375). Format: cell-based. The note with it: for Cell viability (%) of test cells: human, 48 h. On the procedure: The antitumor activity of Sample 1 synthesized in the above Test Example 1 with respect to human-derived cultured tumor cells was evaluated. Currently commercially available human gastric cancer cell lines (FU97), human alveolar basal epithelial adenocarcinoma cell lines (A549), human breast cancer cell lines (MDA-MB-231), and human melanoma cell lines (A375) were prepared as test tumor cells. In addition, normal human mammary epithelial cell culture lines (MCF-12F) were prepared for comparison. A DMEM culture medium including 50 unit/mL of penicillin, 50 μg/mL of streptomycin, and 10% FBS. The above five types of cell lines were cultured in respective designated culture solutions. The cell lines were cultured so that the number of cells per well in a 96-hole (well) plate was about 5×10^3. Here, an amount of the culture solution per well was 100 μL. The 96-well plate was then placed in a CO2 incubator. Then, pre-incubation was performed under conditions of 37° C. and 5% CO2 for about 1 day (about 23 hours). Then, regarding the culture solution for the peptide addition area, culture solutions containing Sample 1 for each concentration were prepared so that the concentration of Sample 1 was 6.25 μM, 12.5 μM or 25 μM and supplied to wells (that is, wells after the pre-incubation) in which 90 μL of cells to be evaluated were cultured in each well. On the other hand, regarding the culture solution for the comparative test area, a culture solution to which no Sample 1 was added was prepared, and supplied to wells (that is, wells after the pre-incubation) in which 90 μL of cells to be evaluated were cultured in each well. The 96-well plate was then placed in a CO2 incubator, and incubated under conditions of 37° C. and 5% CO2 for 48 hours. After the incubation for 48 hours, the culture solution in each well was replaced with […] a fresh culture solution containing no Sample 1. […] Then, the absorbance at a wavelength of 450 nm (value corrected by the absorbance at a wavelength of 620 nm: A450-A620) was measured based on the reduction of the tetrazolium salt in the culture solution. Then, the cell viability was calculated according to a colorimetric method. In the test areas (test areas 1 to 3) in the peptide addition area, the cell viability of each of the above five types of cell lines was calculated as a relative value when a measured value (measurement absorbance) of the comparative test area in the same cell lines was set as 100%. That is, regarding each of the above five types of cell lines, the cell viability (%) was calculated by dividing the measurement absorbance of the test areas (test areas 1 to 3) in the peptide addition area by the measurement absorbance of the comparative test area in the same cell lines and multiplying by 100.

A further data set is described as follows: in vitro. Format: cell-based. Particulars: human. The protocol: Currently commercially available human gastric cancer cell lines (FU97), human alveolar basal epithelial adenocarcinoma cell lines (A549), human breast cancer cell lines (MDA-MB-231), and human melanoma cell lines (A375) were prepared as test tumor cells. In addition, normal human mammary epithelial cell culture lines (MCF-12F) were prepared for comparison. A DMEM/F12 culture medium including 20 ng/mL of recombinant EGF, 10 μg/mL of insulin, 0.5 μg/mL of hydrocortisone, and 10% FBS (product, commercially available from Wako Pure Chemical Industries, Ltd.). The above five types of cell lines were cultured in respective designated culture solutions. The cell lines were cultured so that the number of cells per well in a 96-hole (well) plate was about 5×10^3. Here, an amount of the culture solution per well was 100 μL. The 96-well plate was then placed in a CO2 incubator. Then, pre-incubation was performed under conditions of 37° C. and 5% CO2 for about 1 day (about 23 hours). Then, regarding the culture solution for the peptide addition area, culture solutions containing Sample 1 for each concentration were prepared so that the concentration of Sample 1 was 6.25 μM, 12.5 μM or 25 μM and supplied to wells (that is, wells after the pre-incubation) in which 90 μL of cells to be evaluated were cultured in each well. On the other hand, regarding the culture solution for the comparative test area, a culture solution to which no Sample 1 was added was prepared, and supplied to wells (that is, wells after the pre-incubation) in which 90 μL of cells to be evaluated were cultured in each well. The 96-well plate was then placed in a CO2 incubator, and incubated under conditions of 37° C. and 5% CO2 for 48 hours. […] Then, the absorbance at a wavelength of 450 nm (value corrected by the absorbance at a wavelength of 620 nm: A450-A620) was measured based on the reduction of the tetrazolium salt in the culture solution. Then, the cell viability was calculated according to a colorimetric method. […]

Usually viability stands for a read-out of living cells in per cent, often relative to untreated cells.

Like-named read-outs stand apart in the source and are kept apart here. Ends that are not written are not given here.

As to “MACLGFQRHKAQLNLATRTWPCTLLFFLLFIPVFCKKRTLRKTDRKKR-NH2 (cysteines drawn unpaired) [Sample 1]”, in data set [1] (A375, 12.5 μM Sample 1, (cell viability of test tumor cells)/(cell viability of MCF-12F cells)×100), the “Specific cell viability of test tumor cells” value is 35.7. The “Cell viability (%) of test cells” value in data set [1] (6.25 μM) is reported as 57.8%. Also, in data set [1] (12.5 μM), the “Cell viability (%) of test cells” value was found to be 40.8%. Also, the “Cell viability (%) of test cells” value in data set [1] (25 μM) is 31.6%. In addition, in “in vitro”, the viability at 48 h, 6.25 μM was 130%; the viability at 48 h, 12.5 μM was 114%; the viability at 48 h, 25 μM stood at 82%.
